Columns and labels:
B-cell receptor CD22 [1] = target: T1, B-cell receptor CD22 (Homo sapiens, UniProt P20273); test: Inhibition of CD22 in human Daudi cells preincubated for 15 mins followed by biotinylated dimeric 2-(78-biotinoylamino-1,4,7,10,13,16-hexaoxa-octadecyl)-1,4-bis(2-aza-l-oxo-8-(sodium(5-acetamido-3,5,9-trideoxy-9-(4-phenylbenzamido)-D-glycero-a-D-galacto-non-2-ulopyranosyloxyonate))-5-thia-octyl) benzene probe addition incubated for 20 mins by flow cytometric analysis; format: cell-based
T1 sequence (P20273 whole entry): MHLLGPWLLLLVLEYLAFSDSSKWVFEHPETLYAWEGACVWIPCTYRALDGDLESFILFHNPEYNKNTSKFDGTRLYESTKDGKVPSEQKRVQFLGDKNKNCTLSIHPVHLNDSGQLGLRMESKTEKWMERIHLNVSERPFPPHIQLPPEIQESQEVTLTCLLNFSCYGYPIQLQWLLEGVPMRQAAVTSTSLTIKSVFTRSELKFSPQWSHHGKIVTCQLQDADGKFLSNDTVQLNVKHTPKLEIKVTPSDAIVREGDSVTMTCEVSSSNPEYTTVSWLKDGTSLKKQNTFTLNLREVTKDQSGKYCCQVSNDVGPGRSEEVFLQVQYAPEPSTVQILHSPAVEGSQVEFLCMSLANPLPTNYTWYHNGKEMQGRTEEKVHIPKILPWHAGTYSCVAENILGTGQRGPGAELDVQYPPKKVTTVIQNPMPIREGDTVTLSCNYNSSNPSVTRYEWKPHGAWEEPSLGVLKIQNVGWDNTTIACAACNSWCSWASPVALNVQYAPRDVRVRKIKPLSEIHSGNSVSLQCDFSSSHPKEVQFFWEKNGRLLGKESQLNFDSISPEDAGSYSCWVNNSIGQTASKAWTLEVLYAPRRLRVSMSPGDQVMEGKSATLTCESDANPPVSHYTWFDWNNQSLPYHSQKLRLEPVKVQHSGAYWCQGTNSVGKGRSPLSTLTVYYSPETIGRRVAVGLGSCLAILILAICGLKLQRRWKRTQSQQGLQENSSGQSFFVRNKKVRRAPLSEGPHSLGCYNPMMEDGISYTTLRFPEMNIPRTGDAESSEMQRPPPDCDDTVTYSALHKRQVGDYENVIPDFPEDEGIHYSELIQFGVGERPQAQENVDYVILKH

[2] = target: B-cell receptor CD22 (Homo sapiens) (UniProt P20273); test: Inhibition of CD22 (unknown origin) in human Daudi cells assessed as relative inhibitory potency in presence of biotinylated dimeric 2-(78-biotinoylamino-1,4,7,10,13,16-hexaoxa-octadecyl)-1,4-bis(2-aza-l-oxo-8-(sodium(5-acetamido-3,5,9-trideoxy-9-(4-phenylbenzamido)-D-glycero-a-D-galacto-non-2-ulopyranosyloxyonate))-5-thia-octyl) benzene preincubated for 15 mins followed by probe addition incubated for 20 mins by flow cytometric analysis relative to 1,4-Bis-(2-aza-1-oxo-8-(sodium-(5-acetamido-3,5-dideoxy-D-glycero-alpha-D-galacto-non-2-ulopyranosyloxyonate))-5-thia-octyl)benzene; format: cell-based; details: time 35.0 min
B-cell receptor CD22 [3] = target: T1, B-cell receptor CD22; test: Inhibition hFc tagged CD22 incubated for 4 hrs by ELISA
[4] = target: B-cell receptor CD22 (Homo sapiens) (UniProt P20273); test: Inhibition of hFc tagged CD22 (unknown origin) assessed as relative inhibitory potency incubated for 4 hrs by ELISA relative to 1,4-Bis-(2-aza-1-oxo-8-(sodium-(5-acetamido-3,5-dideoxy-D-glycero-alpha-D-galacto-non-2-ulopyranosyloxyonate))-5-thia-octyl)benzene
[5] = target: B-cell receptor CD22 (Homo sapiens) (UniProt P20273); test: Antagonist activity at CD22 in IgM stimulated human Daudi cells assessed as increase in calcium flux incubated for 10 mins by flow cytometric analysis; format: cell-based; details: dose 2-200 µM, DDE = dose-dependent effect

- IC50 (B-cell receptor CD22 [1]): 2.2 µM
- fold change (FC) [2]: 2940
- IC50 (B-cell receptor CD22 [3]): 0.00041 µM
- fold change (FC) [4]: 100
- Activity [5]: Dde
SMILES: CC(=O)N[C@H]1[C@H]([C@H](O)[C@H](O)CNC(=O)c2ccc(-c3ccccc3)cc2)O[C@@](OCCCSCCNC(=O)c2ccc(C(=O)NCCSCCCO[C@]3(C(=O)O)C[C@H](O)[C@@H](NC(C)=O)[C@H]([C@H](O)[C@H](O)CNC(=O)c4ccc(-c5ccccc5)cc4)O3)cc2)(C(=O)O)C[C@@H]1O

Reference: ChEMBL document CHEMBL5113508, “Targeting Human CD22/Siglec-2 with Dimeric Sialosides as Novel Oligosaccharide Mimetics” (J Med Chem, 2022)
